Active and inactive are the calls of the source. No rule for the calls is given here. A value given as a limit tells only on which side of the number the result lay.

For orientation: Kd means the constant that tells how readily two partners part at equilibrium.

Serine/threonine-protein kinase mTOR (Homo sapiens), sequence (P42345 2015-2114): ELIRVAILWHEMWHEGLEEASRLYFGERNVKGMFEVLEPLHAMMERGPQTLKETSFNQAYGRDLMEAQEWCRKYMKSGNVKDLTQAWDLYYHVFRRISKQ

This assay concerns the target Serine/threonine-protein kinase mTOR (Homo sapiens) (UniProt P42345). As to the kind of experiment: binders of mTOR FRB domain, biophysical, NMR (AID 1648). The note with it: NMR binding to FRB domain, chemical shift.
In the case of `CC(C)(C)C(=O)N1CCCC1C(=O)O` (stereo not given), the Kd is > 4 mM (inactive).
`CS(=O)(=O)Nc1cc2c3c(c1)CCN3C(=O)CC2`: the Kd is > 4 mM (inactive).
As for `CC(=O)N1CCN(c2ccc(O)cc2)CC1`, the Kd was > 4 mM (inactive).
For `N=c1c2c3c(sc2ncn1N)CCCC3`, the Kd is > 4 mM (inactive).
In the case of `NC(=O)C1CCN(c2ncnc(N)c2[N+](=O)[O-])CC1` it was > 4 mM (inactive).
As for `COc1cc(OC)c2c(=O)c(-c3ccc4c(c3)OCO4)coc2c1`, the Kd was > 4 mM (inactive).
Regarding `N#Cc1cnc(N2CCCCC2)nc1N`, the Kd was > 4 mM (inactive).
For `[O-][n+]1onc2c1CCc1c-2nc(-c2ccccc2)n1O`, the Kd is > 4 mM (inactive).
On to `Cn1ncc2c(=O)n(CC(=O)c3ccccc3)cnc21`, for which the Kd was > 4 mM (inactive).
As to `Cc1cc(C)c2ccc[n+]([O-])c2c1O`, the Kd is > 4 mM (inactive).
On to `CC(C)CC(=O)NC1CCSC1=O` (stereo not given), for which the Kd was > 4 mM (inactive).
As for `CC(=O)OC1CCC2(C)C(=CC=C3C2CCC2(C)C3CCC2C(C)/C=C/C(C)C(C)C)C1(C)C` (stereo not given), the Kd is > 4 mM (inactive).
For `NC1CCN(Cc2ccccc2)CC1`, the Kd was > 4 mM (inactive).
To `Brc1cccc(-c2nnco2)c1` belongs > 4 mM (inactive); to `Nc1nonc1-c1nc2ccccc2[nH]1`, > 4 mM (inactive); to `CC(=O)Nc1ccc(NC(=O)c2ccnn2C)cc1`, > 4 mM (inactive).
Consider `CN(C)C(=O)CSc1nc(N)cc(=O)[nH]1`, for which the Kd is > 4 mM (inactive).
Consider `CS(=O)(=O)c1ccc(N)cc1`, for which the Kd was > 4 mM (inactive).
`Cc1cc(C(=O)Nc2ccc3c(c2)OCO3)cs1`: the Kd was > 4 mM (inactive).
In the case of `Cc1nc(NCc2ccco2)nc2c1C(=O)CC(C)C2` (stereo not given), the Kd was > 4 mM (inactive).
As to `O=C(C1CCC(C(=O)N2CCCC2)CC1)N1CCCC1` (stereo not given), the Kd is > 4 mM (inactive).
In the case of `Nc1ccc(C(=O)NCC2CCCO2)cc1` (stereo not given) it was > 4 mM (inactive); in that of `O=C(O)CCn1cncn1`, > 4 mM (inactive); in that of `CC1=NNC(=O)C1CCc1ccncc1` (stereo not given), > 4 mM (inactive).
As to `C[C@@H]1CC[C@@]2(OC1)OC1C(O)C3C4CC[C@H]5C[C@H](O[C@@H]6O[C@H](CO)[C@H](O[C@@H]7O[C@H](CO)[C@@H](O)[C@H](O[C@@H]8OC[C@@H](O)[C@H](O)[C@H]8O)[C@H]7O[C@@H]7O[C@H](CO)[C@H](O)[C@H](O[C@@H]8O[C@H](CO)[C@@H](O)[C@H](O)[C@H]8O)[C@H]7O)[C@H](O)[C@H]6O)[C@H](O)C[C@]5(C)C4CC[C@]3(C)C1[C@@H]2C` (stereo not given in full), the Kd was > 4 mM (inactive).
For `O=C(O)c1sccc1-n1cccc1`, the Kd is > 4 mM (inactive).
For `CC(=O)O[C@@H]1c2c(ccc3ccc(=O)oc23)OC(C)(C)[C@@H]1OC(=O)CC(C)C`, the Kd is > 4 mM (inactive).
As to `Cc1cc(OC(=O)c2ccco2)c([N+](=O)[O-])c(=O)[nH]1`, the Kd is > 4 mM (inactive).
As for `CSc1nc2[nH]ncc2c(=O)[nH]1`, the Kd is > 4 mM (inactive).
Regarding `Cn1c2c(c(=O)n(C)c1=O)CN(Cc1ccco1)CN2`, the Kd was > 4 mM (inactive).
Turning to `CC(C)NC(=S)N1CCN(S(C)(=O)=O)CC1`, the Kd was > 4 mM (inactive).
As for `O=C1C(=O)N(CN2CCN(CCO)CC2)c2ccccc21`, the Kd was > 4 mM (inactive).
Regarding `C[n+]1ccc(C(=O)[O-])cc1`, the Kd is > 4 mM (inactive).
Take `NC(=O)/C=C/C(=O)Nc1ccccc1`: the Kd is > 4 mM (inactive).
On to `Cc1ncc(CC(=O)O)s1`, for which the Kd is > 4 mM (inactive).
To `NCc1ccc2sccc2c1` belongs > 4 mM (inactive); to `COc1ccccc1NC(=O)C1CCCCC1`, > 4 mM (inactive).
As to `COc1ccc(-c2coc3cc(O)ccc3c2=O)cc1`, the Kd is > 4 mM (inactive).
As to `NC(=O)c1cn(-c2ccccc2)nc1-c1cccnc1`, the Kd was > 4 mM (inactive).
For `O=C(Nc1cccc(C(F)(F)F)c1)c1cccnc1`, the Kd is > 4 mM (inactive).
In the case of `O=C1c2ccccc2C(=O)N1Cc1ccco1` it was > 4 mM (inactive); in that of `COc1ccc(Cl)cc1-c1n[nH]c(=S)n1C`, > 4 mM (inactive).
Take `Cc1cc(C)c2nncn2n1`: the Kd is > 4 mM (inactive).
To `NC(=O)c1cccc2c(=O)oc3ccccc3c12` belongs > 4 mM (inactive).
For the compound `O=C(NC(=S)NCCO)c1ccccc1`, the Kd is > 4 mM (inactive).
As to `NCc1cccc(-n2cccc2)c1`, the Kd is > 4 mM (inactive).
On to `O=C(O)c1cnc2sc3ccccc3n2c1=O`, for which the Kd was > 4 mM (inactive).
For `Nc1ccccc1C(=O)N1CCNC(=O)C1`, the Kd is > 4 mM (inactive).
Regarding `S=c1[nH]cnc2sccc12`, the Kd is > 4 mM (inactive).
Regarding `O=C(NCc1cccs1)c1nc2ncccn2n1`, the Kd was > 4 mM (inactive).
`COCCn1c(C)cc(O)cc1=O`: the Kd was > 4 mM (inactive).
Regarding `NC(=O)C(=O)Nc1nc(-c2ccccc2)cs1`, the Kd was > 4 mM (inactive).
To `c1ccc(CCN2CCN(CCc3ccccn3)CC2)nc1` belongs > 4 mM (inactive).
To `Nc1ccc(S(=O)(=O)Nc2ccc(F)cc2F)cc1` belongs > 4 mM (inactive).
In the case of `Cn1nnc2c(Cl)ncnc21` it was > 4 mM (inactive); in that of `Cc1sc2nc3n(c(=O)c2c1C)CCCS3`, > 4 mM (inactive); in that of `CC12CCC3C(CC3(C)C)C(C)(CCC1=O)O2` (stereo not given), > 4 mM (inactive).
For `O=[n+]1cc(-c2ccccc2)n([O-])c2c1CCC2`, the Kd was > 4 mM (inactive).
On to `Cc1sc2nc(C)n(NC(N)=O)c(=O)c2c1C`, for which the Kd was > 4 mM (inactive).
`CNC(=O)n1ccc(C(=O)N2CCCCC2)n1`: the Kd was > 4 mM (inactive).
Consider `Nc1ccc2c(c1)OCO2`, for which the Kd is > 4 mM (inactive).
For the compound `O=c1cc(-c2ccc(O)cc2)oc2cc(O)cc(O)c12`, the Kd was > 4 mM (inactive).
In the case of `CC(O)(C(=O)O)c1ccccc1` (stereo not given) it was > 4 mM (inactive).
Take `CCOC(=O)CNc1ncnc2c1nnn2CC`: the Kd was > 4 mM (inactive).
For `OCc1csc(-c2ccccc2)n1`, the Kd was > 4 mM (inactive).
As to `O=C(O)CC[N+](=O)[O-]`, the Kd is > 4 mM (inactive).
In the case of `Cc1nnc(NC(=O)C(C)Sc2nncn2C)s1` (stereo not given) it was > 4 mM (inactive).
With `Nc1ccc(C2SCCS2)cc1`, the Kd was > 4 mM (inactive).
For `COc1cccc(/C=C/C(=O)O)c1C(C)C`, the Kd was > 4 mM (inactive).
As to `Cc1n[nH]c(C)c1CC(=O)O`, the Kd is > 4 mM (inactive).
With `Cc1cccc(C)c1N1C(=O)CCC1=O`, the Kd is > 4 mM (inactive).
In the case of `COc1ccccc1NC(=O)c1ccc(Br)o1` it was > 4 mM (inactive).
With `Cc1ccc(CCC(N)=O)o1`, the Kd is > 4 mM (inactive).
For the compound `Fc1ccc2onc(C3CCNCC3)c2c1`, the Kd was > 4 mM (inactive).
In the case of `Cn1nc(C(=O)NC2CCCCC2)c2ccccc2c1=O`, the Kd is > 4 mM (inactive).

Source of the values: PubChem BioAssay AID1648 (Sanford-Burnham Center for Chemical Genomics, 2009).
